Assay results: article PMC12027702, “Evaluation of Tyrosinase Inhibitory Activity of Carbathioamidopyrazoles and Their Potential Application in Cosmetic Products and Melanoma Treatment” (International Journal of Molecular Sciences, 2025)

Target: T1, mushroom tyrosinase
T1 construct: gene PPO3; PDB 2Y9X is only the docking model
Experiment: Dixon plot, L-DOPA oxidation, absorbance at […] nm
Type: biochemical
Conditions: L-DOPA substrate, phosphate buffer pH 6.88, 20 °C, 20 min preincubation, 10% DMSO; competitive

Ki [µM]	Structure (SMILES)
118	NC(=S)n1nc(-c2ccccc2)cc1O [compound 3, 1-[amino(thioxo)methyl]-5-hydroxy-3-phenyl-1Hpyrazole]
64.4	CCc1cc(CC)n(C(N)=S)n1 [compound 2, 1-[amino(thioxo)methyl]-3,5-diethyl-1Hpyrazole]
14.6	Cc1cc(C)n(C(N)=S)n1 [compound 1, 1-[amino(thioxo)methyl]-3,5-dimethyl-1Hpyrazole]
7.88	Cc1cc(O)n(C(N)=S)n1 [compound 4, 1-[amino(thioxo)methyl]-5-hydroxy-3-methyl-1H-pyrazole]
